Key:
[1] = tested on: peripheral blood mononuclear cells (PBMC), T cells; experiment: ELISpot assay, gamma-interferon release (SFC) after stimulation with a-synuclein epitope pools; assay type: cell-based, human; conditions: for Pool +: IFNg, Pool Stimulated, number of donors with a positive response, Donors tested 1
Summary of the method: (§1)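 Samples came from 44 PD patients and 24 matched controls, tested blindly. Their PBMC were stimulated for 22 hours at 37 C with α-synuclein peptide pools, and pools that responded were resolved into individual epitopes.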

[2] = tested on: peripheral blood mononuclear cells (PBMC), T cells; experiment: ELISpot assay, IL-5 release (SFC) after stimulation with a-synuclein epitope pools; assay type: cell-based, human
Summary of the method: as §1

[3] = Patients Summary, PD patients, of donors tested (peptide)
[4] = Patients Summary, PD patients, single peptide
[5] = number of donors positive to the single peptide, second 'Pool Stimulated' section (from r296), 12 donors tested
[6] = peptide + / donors tested (peptide), second 'Pool Stimulated' section (from r296), 12 donors tested
[7] = single peptide, second 'Pool Stimulated' section (from r296), 12 donors tested
[8] = Patients Summary, Phospho pool peptides
[9] = Patients Summary, Phospho pool peptides, 10 donors tested
[10] = peptides of pool 'Poshpho', 8 donors tested
[11] = peptides of pool 'Poshpho', 8 donors tested, number of donors positive

Substance	Pool + [1]	IFNg Peptide + (donors positive to the peptide) [1, 3]	IFNg Response Frequency [1, 4] [%]	IFNg Total SFC [1, 4] [SFC]	IFNg Peptide + [1, 5]	IFNg Response Frequency [1, 6] [%]	IFNg Total SFC [1, 7] [SFC]	IL-g Peptide + (donors positive to the peptide) [2, 3]	IL-g Response Frequency [2, 4] [%]	IL-g Total SFC [2, 4] [SFC]	IL-g Peptide + [2, 5]	IL-g Response Frequency [2, 6] [%]	IL-g Total SFC [2, 7] [SFC]	IL-g Avg SFC [2, 4] [SFC]	other results
3521.0049 (APQEGILEDM; listed as Homo sapiens)	0	0	0	0	0	0	0	0	0	0	0	0	0		
3521.0047 (IAAATGFVKK; listed as Homo sapiens)	0	0	0	0	0	0	0	0	0	0	0	0	0		
3521.0022 (GSIAAATGF; listed as Homo sapiens)	0	0	0	0	0	0	0	0	0	0	0	0	0		
3521.0023 (YEMPSEEGY; listed as Homo sapiens)	0	0	0	0	0	0		0	0	0	1	50	58		Pool + ([1]; pool 'Phospho' (phosphorylated peptides)): 1; IFNg Avg SFC [1, 8]: 680 SFC; IFNg Response Frequency [1, 8]: 30%; IFNg Total SFC [1, 8]: 2039 SFC; IFNg Peptide + (donors positive to the peptide) [1, 9]: 3; IFNg Avg SFC [1, 10]: 333 SFC; IFNg Response Frequency [1, 10]: 13%; IFNg Total SFC [1, 10]: 333 SFC; IFNg Peptide + [1, 11]: 1; IL-g Avg SFC [2, 8]: 1593 SFC; IL-g Response Frequency [2, 8]: 10%; IL-g Total SFC [2, 8]: 1593 SFC; IL-g Peptide + (donors positive to the peptide) [2, 9]: 1; IL-g Avg SFC [2, 10]: 193 SFC; IL-g Response Frequency [2, 10]: 13%; IL-g Total SFC [2, 10]: 193 SFC; IL-g Peptide + [2, 11]: 1; IL-g Avg SFC [2, 7]: 58 SFC
3521.0071 (YVGSKTKEGVVHGVT; listed as Homo sapiens)	0	0	0	0				1	17	35				35	
3521.0048 (EQVTNVGGAV; listed as Homo sapiens)	0	0	0	0	0	0	0	0	0	0	0	0	0		
3521.0061 (AATGFVKKDQ; listed as Homo sapiens)	0	0	0	0	1	50	84	0	0	0	1	50	195		IFNg Avg SFC [1, 7]: 84 SFC; IL-g Avg SFC [2, 7]: 195 SFC
3521.0006 (VLYVGSKTK; listed as Homo sapiens)	0	5	83	1519				2	33	168				84	IFNg Avg SFC [1, 4]: 304 SFC
3521.0003 (SIAAATGFV; listed as Homo sapiens)	0	0	0	0	1	50	33.3	0	0	0	0	0	0		IFNg Avg SFC [1, 7]: 33.3 SFC
3521.0025 (EEGAPQEGI; listed as Homo sapiens)	0	1	25	290	0	0	0	2	50	172	0	0	0	86	IFNg Avg SFC [1, 4]: 290 SFC
3521.0041 (EGILEDMPVD; listed as Homo sapiens)	0	0	0	0	0	0		0	0	0	0	0	0		
3521.0033 (VLYVGSKTKK; listed as Homo sapiens)	1	5	83	1626				3	50	528				176	IFNg Avg SFC [1, 4]: 325 SFC
3521.0084 (YVGSKTKEGVVHGVA; listed as Homo sapiens)	0	0	0	0				0	0	0					
3521.0085 (EGVVHGVATVAEKTK; listed as Homo sapiens)	1	0	0	0	0	0	0	0	0	0	1	50	80		IL-g Avg SFC [2, 7]: 80 SFC
3521.0009 (LYVGSKTKK; listed as Homo sapiens)	0	2	33	326				1	17	559				559	IFNg Avg SFC [1, 4]: 163 SFC
3521.0068 (GVAEAPGKTK; listed as Homo sapiens)	0	0	0	0	0	0	0	0	0	0	0	0	0		
3521.0005 (AVVTGVTAV; listed as Homo sapiens)	0	0	0	0	0	0	0	0	0	0	0	0	0		
3521.0077 (KTKEGVLYVGSKTKK; listed as Homo sapiens)	1	5	63	3505	2	100	3020	6	75	3565	2	100	1814	595	IFNg Avg SFC [1, 4]: 701 SFC; IFNg Avg SFC [1, 7]: 1510 SFC; IL-g Avg SFC [2, 7]: 3907 SFC

Source: patent publication US20170184612A1, “USE OF LEUKOCYTES AND NOVEL BIOMARKERS IN THE DIAGNOSIS, CONFIRMATION, AND TREATMENT OF A NEUROLOGICAL DISORDER” (The Trustees of Columbia University in the City of New York, priority 2014, published 2017)
